The text below walks through data of patent US20240124427A1, “HYDROXYHETEROCYCLOALKANE-CARBAMOYL DERIVATIVES” (Idorsia Pharmaceuticals Ltd, priority 2021, published 2024).

In general, IC50 refers to the concentration that gives 50% inhibition.

In this experiment the target is human Gal-3 (hGal-3) (Homo sapiens (Human), UniProt P17931). Put plainly: Competitive binding assay: biotinylated hGal-3 binding to microplate-adsorbed asialofetuin (ASF). The note with it: Activity on hGal-3; mean values of several measurements; mixture of diastereomers measured where not separated. Here is the method:
The inhibitory activity of compounds is determined in competitive binding assays. This spectrophotometric assay measures the binding of biotinylated human Gal-3 (hGal-3) or human Gal-1 (hGal-1), respectively, to a microplate-adsorbed glycoprotein, asialofetuin (ASF) (Proc Natl Acad Sci USA. 2013 Mar 26;110(13):5052-7.). Alternatively, and preferably, a human Gal-1 version in which all six cysteines are substituted by serines may be used.
Briefly, compounds are serially diluted in DMSO (working dilutions).
Plates are incubated for 3 hours at 4° C., then washed with cold assay buffer (3×50 uL), incubated for 1 hour with 25 μL/well of a streptavidin-peroxidase solution (diluted in assay buffer to 80 ng/mL) at 4° C., followed by further washing steps with assay buffer (3×50 uL). Finally, 25 μL/well of ABTS substrate is added.
The calculated IC50 values may fluctuate depending on the daily assay performance. Fluctuations of this kind are known to those skilled in the art. IC50 values from several measurements are given as mean values.

Chain of human Gal-3 (hGal-3) (P17931 whole entry): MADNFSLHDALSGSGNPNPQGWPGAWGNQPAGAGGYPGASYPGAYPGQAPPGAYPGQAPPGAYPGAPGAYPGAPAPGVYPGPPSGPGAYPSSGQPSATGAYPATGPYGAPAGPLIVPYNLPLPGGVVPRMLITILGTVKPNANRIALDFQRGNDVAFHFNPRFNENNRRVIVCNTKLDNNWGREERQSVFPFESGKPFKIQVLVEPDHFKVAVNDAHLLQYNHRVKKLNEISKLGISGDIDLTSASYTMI

Take `CO[C@@H]1[C@@H](n2cc(-c3cc(F)c(F)c(F)c3)nn2)[C@@H](O)[C@@H](CO)O[C@H]1C(=O)N(c1cccc(Cl)c1)[C@H]1COC[C@@H]1O` [Example 1, (2R,3R,4S,5R,6R)-N-(3-chlorophenyl)-5-hydroxy-6-(hydroxymethyl)-N-((3S,4R)-4-hydroxytetrahydrofuran-3-yl)-3-methoxy-4-(4-(3,4,5-trifluorophenyl)-1H-1,2,3-triazol-1-yl)tetrahydro-2H-pyran-2-carboxamide]: the IC50 was 102 nM.

As to `CO[C@@H]1[C@@H](n2cc(-c3cc(F)c(F)c(F)c3)nn2)[C@@H](O)[C@@H](CO)O[C@H]1C(=O)N(c1cccc(Br)c1)[C@H]1COC[C@@H]1O` [Example 2, (2R,3R,4S,5R,6R)-N-(3-bromophenyl)-5-hydroxy-6-(hydroxymethyl)-N-((3S,4R)-4-hydroxytetrahydrofuran-3-yl)-3-methoxy-4-(4-(3,4,5-trifluorophenyl)-1H-1,2,3-triazol-1-yl)tetrahydro-2H-pyran-2-carboxamide], the IC50 amounted to 80 nM.

Consider `CO[C@@H]1[C@@H](n2cc(-c3cc(F)c(F)c(F)c3)nn2)[C@@H](O)[C@@H](CO)O[C@H]1C(=O)N(c1cccc(I)c1)[C@H]1COC[C@@H]1O` [Example 3, (2R,3R,4S,5R,6R)-5-hydroxy-6-(hydroxymethyl)-N-((3S,4R)-4-hydroxytetrahydrofuran-3-yl)-N-(3-iodophenyl)-3-methoxy-4-(4-(3,4,5-trifluorophenyl)-1H-1,2,3-triazol-1-yl)tetrahydro-2H-pyran-2-carboxamide], for which the IC50 came out at 56 nM.

Turning to `CO[C@@H]1[C@@H](n2cc(-c3cc(F)c(F)c(F)c3)nn2)[C@@H](O)[C@@H](CO)O[C@H]1C(=O)N(c1cc(Cl)cc(C#N)c1)[C@H]1COC[C@@H]1O` [Example 5, (2R,3R,4S,5R,6R)-N-(3-chloro-5-cyanophenyl)-5-hydroxy-6-(hydroxymethyl)-N-((3S,4R)-4-hydroxytetrahydrofuran-3-yl)-3-methoxy-4-(4-(3,4,5-trifluorophenyl)-1H-1,2,3-triazol-1-yl)tetrahydro-2H-pyran-2-carboxamide], the IC50 amounted to 69 nM.

Consider `CO[C@@H]1[C@@H](n2cc(-c3cc(F)c(F)c(F)c3)nn2)[C@@H](O)[C@@H](CO)O[C@H]1C(=O)N(c1cc(Br)cc(Br)c1)[C@H]1COC[C@@H]1O` [Example 6, (2R,3R,4S,5R,6R)-N-(3,5-dibromophenyl)-5-hydroxy-6-(hydroxymethyl)-N-((3S,4R)-4-hydroxytetrahydrofuran-3-yl)-3-methoxy-4-(4-(3,4,5-trifluorophenyl)-1H-1,2,3-triazol-1-yl)tetrahydro-2H-pyran-2-carboxamide], for which the IC50 turned out to be 53 nM.

In the case of `CO[C@@H]1[C@@H](n2cc(-c3cc(F)c(F)c(F)c3)nn2)[C@@H](O)[C@@H](CO)O[C@H]1C(=O)N(c1cc(C)cc(Br)c1)[C@H]1COC[C@@H]1O` [Example 8, (2R,3R,4S,5R,6R)-N-(3-bromo-5-methylphenyl)-5-hydroxy-6-(hydroxymethyl)-N-((3S,4R)-4-hydroxytetrahydrofuran-3-yl)-3-methoxy-4-(4-(3,4,5-trifluorophenyl)-1H-1,2,3-triazol-1-yl)tetrahydro-2H-pyran-2-carboxamide], the IC50 was found to be 77 nM.

As to `COc1cc(C#N)cc(N(C(=O)[C@@H]2O[C@H](CO)[C@H](O)[C@H](n3cc(-c4cc(F)c(F)c(F)c4)nn3)[C@H]2OC)[C@H]2COC[C@@H]2O)c1` [Example 9, (2R,3R,4S,5R,6R)-N-(3-cyano-5-methoxyphenyl)-5-hydroxy-6-(hydroxymethyl)-N-((3S,4R)-4-hydroxytetrahydrofuran-3-yl)-3-methoxy-4-(4-(3,4,5-trifluorophenyl)-1H-1,2,3-triazol-1-yl)tetrahydro-2H-pyran-2-carboxamide], the IC50 is 101 nM.

As to `CO[C@@H]1[C@@H](n2cc(-c3cc(F)c(F)c(F)c3)nn2)[C@@H](O)[C@@H](CO)O[C@H]1C(=O)N(c1cc(C)cc(C#N)c1)[C@H]1COC[C@@H]1O` [Example 10, (2R,3R,4S,5R,6R)-N-(3-cyano-5-methylphenyl)-5-hydroxy-6-(hydroxymethyl)-N-((3S,4R)-4-hydroxytetrahydrofuran-3-yl)-3-methoxy-4-(4-(3,4,5-trifluorophenyl)-1H-1,2,3-triazol-1-yl)tetrahydro-2H-pyran-2-carboxamide], the IC50 is 136 nM.

For the molecule `CO[C@@H]1[C@@H](n2cc(-c3cc(F)c(F)c(F)c3)nn2)[C@@H](O)[C@@H](CO)O[C@H]1C(=O)N(c1cc(F)cc(C#N)c1)[C@H]1COC[C@@H]1O` [Example 11, (2R,3R,4S,5R,6R)-N-(3-cyano-5-fluorophenyl)-5-hydroxy-6-(hydroxymethyl)-N-((3S,4R)-4-hydroxytetrahydrofuran-3-yl)-3-methoxy-4-(4-(3,4,5-trifluorophenyl)-1H-1,2,3-triazol-1-yl)tetrahydro-2H-pyran-2-carboxamide], the IC50 is 124 nM.

`CO[C@@H]1[C@@H](n2cc(-c3ccc(Br)c(F)c3F)nn2)[C@@H](O)[C@@H](CO)O[C@H]1C(=O)N(c1cc(Cl)cc(Cl)c1)[C@H]1COC[C@@H]1O` [Example 12, (2R,3R,4S,5R,6R)-4-(4-(4-bromo-2,3-difluorophenyl)-1H-1,2,3-triazol-1-yl)-N-(3,5-dichlorophenyl)-5-hydroxy-6-(hydroxymethyl)-N-((3S,4R)-4-hydroxytetrahydrofuran-3-yl)-3-methoxytetrahydro-2H-pyran-2-carboxamide]: the IC50 was determined as 47 nM.

On to `CO[C@@H]1[C@@H](n2cc(-c3ccc(Br)c(F)c3F)nn2)[C@@H](O)[C@@H](CO)O[C@H]1C(=O)N(c1cc(Br)cc(C#N)c1)[C@H]1COC[C@@H]1O` [Example 13, (2R,3R,4S,5R,6R)-4-(4-(4-bromo-2,3-difluorophenyl)-1H-1,2,3-triazol-1-yl)-N-(3-bromo-5-cyanophenyl)-5-hydroxy-6-(hydroxymethyl)-N-((3S,4R)-4-hydroxytetrahydrofuran-3-yl)-3-methoxytetrahydro-2H-pyran-2-carboxamide], for which the IC50 was 15 nM.

`CO[C@@H]1[C@@H](n2cc(-c3ccc(Br)c(F)c3F)nn2)[C@@H](O)[C@@H](CO)O[C@H]1C(=O)N(c1cc(C)cc(Br)c1)[C@H]1COC[C@@H]1O` [Example 14, (2R,3R,4S,5R,6R)-4-(4-(4-bromo-2,3-difluorophenyl)-1H-1,2,3-triazol-1-yl)-N-(3-bromo-5-methylphenyl)-5-hydroxy-6-(hydroxymethyl)-N-((3S,4R)-4-hydroxytetrahydrofuran-3-yl)-3-methoxytetrahydro-2H-pyran-2-carboxamide]: the IC50 was 46 nM.

`CO[C@@H]1[C@@H](n2cc(-c3cc(F)c(C)c(F)c3)nn2)[C@@H](O)[C@@H](CO)O[C@H]1C(=O)N(c1cc(Cl)cc(Cl)c1)[C@H]1COC[C@@H]1O` [Example 15, (2R,3R,4S,5R,6R)-N-(3,5-dichlorophenyl)-4-(4-(3,5-difluoro-4-methylphenyl)-1H-1,2,3-triazol-1-yl)-5-hydroxy-6-(hydroxymethyl)-N-((3S,4R)-4-hydroxytetrahydrofuran-3-yl)-3-methoxytetrahydro-2H-pyran-2-carboxamide]: the IC50 came to 38 nM.

For the molecule `CO[C@@H]1[C@@H](n2cc(-c3cc(F)c(C)c(F)c3)nn2)[C@@H](O)[C@@H](CO)O[C@H]1C(=O)N(c1cc(Br)cc(Br)c1)[C@H]1COC[C@@H]1O` [Example 16, (2R,3R,4S,5R,6R)-N-(3,5-dibromophenyl)-4-(4-(3,5-difluoro-4-methylphenyl)-1H-1,2,3-triazol-1-yl)-5-hydroxy-6-(hydroxymethyl)-N-((3S,4R)-4-hydroxytetrahydrofuran-3-yl)-3-methoxytetrahydro-2H-pyran-2-carboxamide], the IC50 was found to be 61 nM.

Turning to `CO[C@@H]1[C@@H](n2cc(-c3cc(F)c(C)c(F)c3)nn2)[C@@H](O)[C@@H](CO)O[C@H]1C(=O)N(c1cc(Br)cc(C#N)c1)[C@H]1COC[C@@H]1O` [Example 17, (2R,3R,4S,5R,6R)-N-(3-bromo-5-cyanophenyl)-4-(4-(3,5-difluoro-4-methylphenyl)-1H-1,2,3-triazol-1-yl)-5-hydroxy-6-(hydroxymethyl)-N-((3S,4R)-4-hydroxytetrahydrofuran-3-yl)-3-methoxytetrahydro-2H-pyran-2-carboxamide], the concentration for half-maximal inhibition (IC50) was found to be 66 nM.

For `CO[C@@H]1[C@@H](n2cc(-c3cc(F)c(C)c(F)c3)nn2)[C@@H](O)[C@@H](CO)O[C@H]1C(=O)N(c1cc(C)cc(Br)c1)[C@H]1COC[C@@H]1O` [Example 18, (2R,3R,4S,5R,6R)-N-(3-bromo-5-methylphenyl)-4-(4-(3,5-difluoro-4-methylphenyl)-1H-1,2,3-triazol-1-yl)-5-hydroxy-6-(hydroxymethyl)-N-((3S,4R)-4-hydroxytetrahydrofuran-3-yl)-3-methoxytetrahydro-2H-pyran-2-carboxamide], the IC50 came out at 69 nM.

With `CO[C@@H]1[C@@H](n2cc(-c3ccc(C)c(F)c3F)nn2)[C@@H](O)[C@@H](CO)O[C@H]1C(=O)N(c1cc(Cl)cc(Cl)c1)[C@H]1COC[C@@H]1O` [Example 19, (2R,3R,4S,5R,6R)-N-(3,5-dichlorophenyl)-4-(4-(2,3-difluoro-4-methylphenyl)-1H-1,2,3-triazol-1-yl)-5-hydroxy-6-(hydroxymethyl)-N-((3S,4R)-4-hydroxytetrahydrofuran-3-yl)-3-methoxytetrahydro-2H-pyran-2-carboxamide], the IC50 stood at 40 nM.
